Assay results reported in patent US7998681B2, “Diagnosis and therapy of antibody-mediated inflammatory auto-immune disorders” (Los Angeles Biomedical Research Institute at Harbor-UCLA …, priority 2000, dated 2011).

How the values were obtained:
Type in all cases: cell-based, human
[1] = test system: Thy-1^+ and Thy-1^− fibroblasts; assay: IL-8 production in Thy-1+ and Thy-1- orbital fibroblast subsets; conditions: IL-1β treated
Excerpt: FIGS. 11A-11C show differential production in TAO-derived Thy-1^+ and Thy-1^− subsets of PGE2 (11A) and IL-8 in response to IL-1β stimulation (11B), and IL-16 in response to stimulation with Graves' IgG (11C).
With regard to cytokine expression, both subsets fail to generate detectable IL-6 under basal culture conditions but synthesize high levels of the cytokine when treated with IL-1β. The magnitude of these responses is similar in the two fibroblast populations. Similarly, both subsets express low basal levels of IL-8 (FIG. 11B). When treated with IL-1β, Thy-1^− fibroblasts synthesize and release extremely high levels of IL-8 and this induction is substantially (5.5-fold) greater than that occurring in the Thy-1^+ subset.

RANTES = RANTES ELISA of medium from treated fibroblasts, normal donors; conditions: limit of detection 15 pg/ml
Excerpt: (§1) In addition to its therapeutic aspects, the present invention also relates to a diagnostic method for detecting the presence of antibody-activated fibroblasts in the patient. Applicants believe that several auto immune diseases or disorders are associated with antibody-activated fibroblasts. Applicants have shown that increased activation of fibroblasts by auto-antibodies can be monitored by determining the levels of IL-16 and/or RANTES production in a patient. Altered levels of these chemoattractants can be detected in various biological samples in mammals, preferably humans. Levels of IL-16 and/or RANTES may be monitored in a patient, using standard techniques, as an indication of the deleterious aspects of the disease condition. Biological samples, including but not limited to serum, vitreous humor, aqueous humor, synovial fluid, and tissue, will be drawn from the patient using standard techniques. Particularly preferred are serum samples. The measurement of the IL-16 and RANTES levels may be monitored using any method possible to detect the levels of these proteins in biological samples. A preferred method of analysis is by ELISA as described in Sciaky, D. et al., J. Immunol. 164(7):3806-14, 2000. An ELISA specific for IL-16 can be used to assess the levels released by fibroblasts as described previously in Lim, K. G. et al., J. Immunol. 156(7): 2566-70, 1996. An ELISA specific for RANTES can be used according to the manufacturer's specification (BioSource Intl., Camarillo, Calif.).
(§2) The levels of IL-16 and RANTES were then assessed with specific ELISAs. The ELISA assay for IL-16 is performed essentially as discussed in Sciaky D., Brazer, W., Center, D. M., Cruikshank, W. W. and Smith, T. J.: Cultured human fibroblasts express constitutive IL-16 mRNA: Cytokine induction of active IL-16 protein synthesis through a caspase-3-dependent mechanism. J. Immunol. 164(7):3806-14, 2000). An ELISA (BioSource) for RANTES was performed according to the manufacturer's instructions. In an analysis of over a dozen strains, TAO specific IgG elicit substantial induction of IL-16 and RANTES and in no case were normal fibroblasts so affected.

IL-16 = IL-16 ELISA of medium from treated fibroblasts, normal donors; conditions: limit of detection 20 pg/ml
Excerpt: as §1, §2

[2] = test system: dermal fibroblast strains; assay: Glycosaminoglycan (hyaluronan) synthesis in dermal fibroblasts; conditions: dermal fibroblast strains from the same donors
Excerpt: Applicants have also recently made a number of directly relevant observations of the disordered accumulation of hyaluronan in TAO. Orbital fibroblasts synthesize less hyaluronan constitutively than do dermal fibroblasts (Smith, T. J., Bahn, R. S. and Gorman, C. A.: Hormonal regulation of hyaluronate synthesis in cultured human fibroblasts: evidence for differences between retroocular and dermal fibroblasts. J. Clin. Endocrinol. Metab. 69:1019-1023, 1989). However, interferon-γ can modestly upregulate hyaluronan synthesis in orbital but not dermal fibroblasts (Smith, T. J., Bahn, R. S., Gorman, C. A. and Cheavens, M.: Stimulation of glycosaminoglycan accumulation by interferon gamma in cultured human retroocular fibroblasts. J. Clin. Endocrinol. Metab. 72:1169-1171, 1991). […] The macromolecular material was sensitive to Streptomyces hyaluronidase digestion, defining it as hyaluronan (Smith, T. J., Wang, H.-S. and Evans, C. H.: Leukoregulin is a potent inducer of hyaluronan synthesis in cultured orbital fibroblasts. Am. J. Physiol. 268:C382-C388, 1995, appended). The increase was substantially greater in magnitude than that observed in dermal fibroblast strains from the same donors (3-fold) and on the basis of pulse-chase studies could be attributed to changes in net synthesis.

## IL-1β: pro-inflammatory cytokine used to activate fibroblasts
[1]
  IL-8 induction in Thy-1^− relative to Thy-1^+ subset: 5.5 fold
RANTES; strain 12, Orbit
  RANTES: 42 ± 9 pg/mL
RANTES; strain 14, Orbit
  RANTES: 79 ± 11 pg/mL
RANTES; strain 15, Extremity Skin
  RANTES: 173 ± 12 pg/mL
RANTES; strain 16, Extremity Skin
  RANTES: 125 ± 9 pg/mL
IL-16; strain 12, Orbit
  IL-16: 56 ± 10 pg/mL
IL-16; strain 14, Orbit
  IL-16: 68 ± 9 pg/mL
IL-16; strain 15, Extremity Skin
  IL-16: 138 ± 15 pg/mL
IL-16; strain 16, Extremity Skin
  IL-16: 98 ± 19 pg/mL
[2]
  up-regulation of glycosaminoglycan synthesis: 3 fold
